Columns and labels:
HIV RT = target: T1, HIV RT (Human immunodeficiency virus type 1 group M subtype B, UniProt P03366); assay: Steady state kinetics of single nucleotide incorporation by HIV RT (P1/T1); assay type: biochemical, HIV-1
T1 construct: HIV RT polymerase was purchased from GE Healthcare; purchased GE Healthcare (Amersham Bioscience)
Procedure: The steady steate kinetics of a single nucleotide incorporation of an amino acid phosphoramidate (AA-dAMP) and of a natural nucleoside triphosphate (dATP) was determined by the gel-based polymerase assay. In all the experiments, the template T1 and the primer P1 were used (Table 1). The primer and template in 1:2 molar ratio were hybridized in a buffer containing 20 mM TRIS.HCl, 10 mM KCl, 2 mM MgSO4, 0.1% Triton X-100, pH 8.8 and used in an amount to provide 125 nM concentration of the primer in each 12 μL reaction. The range of concentrations for amino acid phosphoramidates was optimized according to a Km value for the incorporation of an individual nucleotide. In the case of HIV RT (Amersham Bioscience (GE Healthcare), 30 U/μL), reaction mixtures containing the enzyme in concentration to attain 5-20% conversion and appropriate substrate concentration (nucleoside phosphoramidate or natural dNTP) were incubated at 37° C. and run for 8-10 different time intervals. Kinetic analysis of single nucleotide incorporation by Therminator DNA polymerase (NEB, 2 U/μL) was performed similarly except the incubations and polymerase reactions, which were carried out at 70° C. To prevent solvent condensation/evaporation, the reaction mixtures were topped with mineral oil. The reactions were quenched by addition of the buffer containing 80% formamide, 2 mM EDTA, 1×TBE buffer. The analysis of polymerase reactions was performed by polyacrylamide gel electrophoresis (20% (19:1 mono:bis), 7M urea, 30 cm×40 cm×0.4 mm). The relative band intensities were measured using OptiQuant software. The rates of incorporation (V) were calculated based on the percentage of the extension production (n+1 band). The kinetic parameters (Vmax and Km) were determined by plotting V (pmol/min·U) versus substrate concentration and fitting the data point to a rectangular hyperbola using GraphPad Prism software.

KF (exo−) DNA polymerase = target: T2, KF (exo−) DNA polymerase (Escherichia coli, UniProt P00582, D355A/E357A); assay: Single nucleotide incorporation by KF (exo−) DNA polymerase; assay type: biochemical; details: 60 minutes
T2 construct: Klenow Fragment (KF) (exo^−) DNA polymerase
Procedure: (§1) Reaction conditions: Primer (P1) was 5′-labeled with ^33P followed by annealing to a template T1; 125 nM primer/template (P1/T1), [Taq]=0.005 U/μL, [Vent]=0.005 U/μL, [KF]=0.05 U/μL; time intervals: 5, 15, 30, 60, 90 and 120 minutes.

[1] = target: T3, HIV reverse transcriptase (Human immunodeficiency virus type 1 group M subtype B, UniProt P03366); assay: Gel-based single-nucleotide-incorporation and control assays with HIV RT (Example 4); assay type: biochemical, HIV-1; details: P1/T2; 9 incorporated first (two hours), then compound 1 added, two more hours
T3 construct: performed for the enzyme HIV reverse transcriptase (GE Healthcare, 30 U/4 stock solution); purchased GE Healthcare

Taq DNA polymerase = Taq DNA polymerase (Thermus aquaticus, UniProt P19821); assay: Single nucleotide incorporation by Taq DNA polymerase; assay type: biochemical
Procedure: as §1
In the case of Therminator DNA polymerase, the enzyme was obtained from Westburg (NEB) (2 U/μL) and the reactions were carried out in a 10× Thermopol reaction buffer containing 20 mM TRIS.HCl, 10 mM KCl, 2 mM MgSO4, 0.1% Triton X-100, pH 8.8. The final concentration of the Therminator DNA pol in the reaction mixture was 8.33×10^−4 U/μL. The polymerase reaction involving Therminator DNA polymerase or any other thermostable polymerase (Vent (exo^−), Taq DNA polymerase) was carried out in a similar way as the HIV RT reaction with some modifications. The dNTP solutions and the primer/template/DNA polymerase mixture solutions were topped with mineral oil (30-60 μL) and pre-incubated at 70° C. for 2 minutes. The polymerase reactions were performed at 70° C. as well.

Taq DNA polymerase, sequence (P19821 whole entry): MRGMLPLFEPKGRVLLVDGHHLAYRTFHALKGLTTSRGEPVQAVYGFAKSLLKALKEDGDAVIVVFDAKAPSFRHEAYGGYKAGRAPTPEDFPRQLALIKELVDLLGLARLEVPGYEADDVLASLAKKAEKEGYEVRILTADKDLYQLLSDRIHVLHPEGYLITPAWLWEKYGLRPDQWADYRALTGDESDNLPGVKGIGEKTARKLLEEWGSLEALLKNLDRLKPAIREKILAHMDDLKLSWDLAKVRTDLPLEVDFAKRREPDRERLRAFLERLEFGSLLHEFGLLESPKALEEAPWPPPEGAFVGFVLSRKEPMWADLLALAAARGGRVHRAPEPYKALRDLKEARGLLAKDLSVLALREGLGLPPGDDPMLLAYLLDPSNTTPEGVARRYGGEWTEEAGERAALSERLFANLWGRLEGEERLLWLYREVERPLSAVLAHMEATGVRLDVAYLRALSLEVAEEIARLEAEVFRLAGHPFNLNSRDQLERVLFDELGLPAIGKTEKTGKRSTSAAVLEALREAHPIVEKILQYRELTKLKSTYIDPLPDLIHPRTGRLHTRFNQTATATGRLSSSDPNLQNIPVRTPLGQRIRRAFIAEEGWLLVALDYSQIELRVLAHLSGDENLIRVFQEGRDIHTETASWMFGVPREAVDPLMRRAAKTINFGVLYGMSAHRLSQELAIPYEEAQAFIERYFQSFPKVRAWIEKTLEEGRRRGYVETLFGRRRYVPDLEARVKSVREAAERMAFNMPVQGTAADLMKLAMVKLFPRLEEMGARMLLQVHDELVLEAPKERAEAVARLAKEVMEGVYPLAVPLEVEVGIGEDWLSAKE
T2 sequence (P00582 324-928 D355A/E357A): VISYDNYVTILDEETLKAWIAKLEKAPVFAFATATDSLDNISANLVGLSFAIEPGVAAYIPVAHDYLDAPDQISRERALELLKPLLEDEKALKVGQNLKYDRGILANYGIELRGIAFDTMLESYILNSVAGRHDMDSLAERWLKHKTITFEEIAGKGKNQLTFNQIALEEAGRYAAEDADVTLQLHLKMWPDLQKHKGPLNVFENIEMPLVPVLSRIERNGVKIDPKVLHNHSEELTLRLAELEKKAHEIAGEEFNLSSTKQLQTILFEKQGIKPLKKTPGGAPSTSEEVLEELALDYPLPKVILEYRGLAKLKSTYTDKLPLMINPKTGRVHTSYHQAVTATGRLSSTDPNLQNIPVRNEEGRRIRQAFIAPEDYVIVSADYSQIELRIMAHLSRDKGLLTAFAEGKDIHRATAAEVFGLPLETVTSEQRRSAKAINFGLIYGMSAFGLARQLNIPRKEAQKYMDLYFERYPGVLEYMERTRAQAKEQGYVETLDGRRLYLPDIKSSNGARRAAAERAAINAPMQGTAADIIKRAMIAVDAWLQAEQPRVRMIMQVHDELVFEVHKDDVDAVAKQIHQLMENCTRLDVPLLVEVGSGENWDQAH

## 2′-deoxy-adenosine-5′-aspartyl-phosphoramidate [Compound 1]
HIV RT
  Km, fold higher as compared to dATP: 400 fold
  Vmax, fold lower than natural substrate dATP: 3 fold
  specificity (Vmax/Km), fold reduced vs natural substrate: 1300 fold
HIV RT; P1/T1, 37° C.
  Km: 185 ± 24.5 µM
  Vmax: 2.63 ± 0.13 pmol/min · U
KF (exo−) DNA polymerase
  conversion of the primer strand: 32.5%
[1]
  n+1 product: 20%
  n+2 product: 80%
Taq DNA polymerase
  insertion into a growing primer strand: failed to insert
